Test results from publication PMC7582373, “Bis-Lactam Peptide [i, i+4]-Stapling with α-Methylated Thialysines” (Molecules, 2020).
*1 amine or outer side, *2 acyl side, *3 side chain or, on linkers, in order; H or OH if unused. Where a SMILES comes first, the peptide text is derived from it. Bridges are numbered along the chain shown (N, C = ends). [ ]: non-standard residue; d: D form. X1 = O=C(Cc1ccc(CC(=O)NCC[*:2])cc1)NCC[*:1]; αMeC = C[C@](N)(CS)C(=O)O

Key:
circular dichroism = conditions: water; pH ns; 25 °C; 25 and/or 50 uM
in vitro = in vitro ADME; conditions: Streptomyces griseus, isolated enzyme pronase, pH 7.3
Excerpt: We further compared the proteolytic stability of the L-α-methyl-thialysine-stapled peptide 5 and the L-thialysine-stapled peptide 6 by employing pronase as the proteolytic enzyme preparation in a proteolysis experiment. Of note, pronase is a mixture of a variety of different proteases/peptidases and therefore has a very broad substrate specificity. […] This observed difference in the proteolytic stability of 5 and 6 is in the same direction of change with the % α-helicity of 5 and 6 (see above), which would be consistent with the notion that an enhanced % α-helicity would improve the proteolytic stability of a stapled peptide, which was also supported previously with the peptides stapled with other stapling systems such as the all-hydrocarbon-stapled peptides.
The following materials were obtained from commercial sources for compound synthesis/purification and the pronase digestion assay, and were used as received. Sigma-Aldrich China (Shanghai, China): N-methylmorpholine (NMM), trifluoroacetic acid (TFA), N,N-dimethylformamide (DMF), N-(allyloxycarbonyloxy)succinimide (Alloc-OSu), triethylamine, Trizma, the pronase from Streptomyces griseus; TCI Shanghai: para-phenylenediacetic acid, 2-(tert-butoxycarbonylamino)ethyl bromide, 1,8-diazabicyclo[5.4.0]undec-7-ene (DBU), L-cysteine, N-(9-fluorenylmethoxycarbonyloxy) succinimide (Fmoc-OSu), phenylsilane (PhSiH3), tetrakis(triphenylphosphine)palladium (Pd(PPh3)4); Alfa Aesar China (Shanghai, China): 2-(1H-benzotriazole-1-yl)-1,1,3,3-tetramethylaminium hexafluorophosphate (HBTU), 2-(7-Aza-1H-benzotriazole-1-yl)-1,1,3,3-tetramethyluronium hexafluorophosphate (HATU), N-hydroxybenzotriazole (HOBt), phenol, thioanisole, ethanedithiol; Honeywell China (Shanghai, China): acetonitrile, dichloromethane (DCM), methanol, ethyl acetate; Sinopharm Chemical Reagent Co., Ltd. (Shanghai, China): acetic anhydride, diethyl ether, semi-preparative thin-layer chromatography (TLC) silica gel plate (HSGF254, 20 × 20 cm, 0.4–0.5 mm); Shanghai Plus Bio-Sci & Tech Co., Ltd. (Shanghai, China): Rink amide 4-methylbenzhydrylamine (MBHA) resin; SyncoZymes Co., Ltd. (Shanghai, China): D-2-methyl-cysteine hydrochloride; Fisher Scientific Worldwide Co., Ltd. (Shanghai, China): L-2-methyl-cysteine hydrochloride.
This experiment followed the protocol described previously. Fifty (50) µL of an 160 μM solution of a peptide (5, 6, 7, or 8) in ddH2O was thoroughly mixed with 50 μL of an 8 ng/μL solution of pronase in 100 mM Tris•HCl (pH 7.3), and the resultant solution was incubated at 37 °C until quenched at different time points (0 min, 4 min, 7.5 min, and 15 min) with an 1.0 M solution of acetic acid in ddH2O. Twenty (20) μL of a pronase digestion solution was taken at each time point and treated immediately with 40 μL of the 1.0 M acetic acid aqueous solution, followed instantly by vigorous vortexing and centrifugation. The obtained supernatant was then injected into a C18 analytical HPLC column (0.46 × 25 cm, 5 μm), and the column was eluted at 1 mL/min with ultraviolet monitoring at 214 nm with the following gradients of ddH2O containing 0.05% (v/v) TFA (mobile phase A) and acetonitrile containing 0.05% (v/v) TFA (mobile phase B): linear increase of B from 0% to 45% in 60 min (for 5 and 6), linear increase of B from 0% to 60% in 60 min (for 7), or linear increase of B from 0% to 100% in 60 min (for 8). The integrated HPLC peak areas at different time points for a given peptide were used to estimate the percentage remaining for the peptide as the function of the digestion time.

Row | SMILES | helicity (circular dichroism) | remaining at 4 min, 80 µM (in vitro) | remaining at 0.125 h, 80 µM (in vitro) | remaining at 0.25 h, 80 µM (in vitro)
1 | CC[C@H](C)[C@H](NC(=O)[C@H](CCC(=O)O)NC(=O)[C@H](CO)NC(C)=O)C(=O)N[C@H](C(=O)N[C@@H](CCCCN)C(=O)N[C@@H](CCC(N)=O)C(=O)N[C@@H](CCC(=O)O)C(=O)N[C@@H](CCCCN)C(=O)N[C@H]1CSCCNC(=O)Cc2ccc(cc2)CC(=O)NCCSC[C@@H](C(=O)N[C@@H](Cc2c[nH]cn2)C(=O)N[C@@H](CCCNC(=N)N)C(=O)N[C@@H](Cc2c[nH]cn2)C(=O)N[C@@H](Cc2ccc(O)cc2)C(=O)N[C@@H](CS)C(N)=O)NC(=O)[C@H](Cc2c[nH]c3ccccc23)NC(=O)[C@H](CC(C)C)NC(=O)[C@H](Cc2ccccc2)NC1=O)[C@@H](C)O [compound 6] (Ac-SEITKQEKCFLWCHRHYC-NH2; linker 9-13 via X1) | 4.4% | ~11.1% | ~4.3% | 
2 | CC(=O)N[C@@H](CCC(=O)O)C(=O)N[C@@H](Cc1c[nH]c2ccccc12)C(=O)N[C@@H](C)C(=O)N[C@@H](CCC(=O)O)C(=O)N[C@H](C(=O)N[C@@H](C)C(=O)N[C@@H](C)C(=O)N[C@@]1(C)CSCCNC(=O)Cc2ccc(cc2)CC(=O)NCCSC[C@@](C)(C(=O)N[C@@H](C)C(=O)N[C@@H](Cc2c[nH]cn2)C(=O)N[C@@H](C)C(N)=O)NC(=O)[C@H](CC(C)C)NC(=O)[C@H](Cc2ccccc2)NC(=O)[C@H](CCCCN)NC1=O)[C@@H](C)O [compound 7] (Ac-EWAETAA[αMeC]KFL[αMeC]AHA-NH2; linker 8-12 via X1) | 13.5% | ~96.6% | ~93.3% | ~81.3%
3 | CC(=O)N[C@@H](CCC(=O)O)C(=O)N[C@@H](Cc1c[nH]c2ccccc12)C(=O)N[C@@H](C)C(=O)N[C@@H](CCC(=O)O)C(=O)N[C@H](C(=O)N[C@@H](C)C(=O)N[C@@H](C)C(=O)N[C@H]1CSCCNC(=O)Cc2ccc(cc2)CC(=O)NCCSC[C@@H](C(=O)N[C@@H](C)C(=O)N[C@@H](Cc2c[nH]cn2)C(=O)N[C@@H](C)C(N)=O)NC(=O)[C@H](CC(C)C)NC(=O)[C@H](Cc2ccccc2)NC(=O)[C@H](CCCCN)NC1=O)[C@@H](C)O [compound 8] (Ac-EWAETAACKFLCAHA-NH2; linker 8-12 via X1) | 7.9% | ~48.9% | ~35.7% | ~21.6%
4 | CC[C@H](C)[C@H](NC(=O)[C@H](CCC(=O)O)NC(=O)[C@H](CO)NC(C)=O)C(=O)N[C@H](C(=O)N[C@@H](CCCCN)C(=O)N[C@@H](CCC(N)=O)C(=O)N[C@@H](CCC(=O)O)C(=O)N[C@@H](CCCCN)C(=O)N[C@]1(C)CSCCNC(=O)Cc2ccc(cc2)CC(=O)NCCSC[C@](C)(C(=O)N[C@@H](Cc2c[nH]cn2)C(=O)N[C@@H](CCCNC(=N)N)C(=O)N[C@@H](Cc2c[nH]cn2)C(=O)N[C@@H](Cc2ccc(O)cc2)C(=O)N[C@@H](CS)C(N)=O)NC(=O)[C@H](Cc2c[nH]c3ccccc23)NC(=O)[C@H](CC(C)C)NC(=O)[C@H](Cc2ccccc2)NC1=O)[C@@H](C)O | 10.4% |  |  | 
5 | CC[C@H](C)[C@H](NC(=O)[C@H](CCC(=O)O)NC(=O)[C@H](CO)NC(C)=O)C(=O)N[C@H](C(=O)N[C@@H](CCCCN)C(=O)N[C@@H](CCC(N)=O)C(=O)N[C@@H](CCC(=O)O)C(=O)N[C@@H](CCCCN)C(=O)N[C@@]1(C)CSCCNC(=O)Cc2ccc(cc2)CC(=O)NCCSC[C@](C)(C(=O)N[C@@H](Cc2c[nH]cn2)C(=O)N[C@@H](CCCNC(=N)N)C(=O)N[C@@H](Cc2c[nH]cn2)C(=O)N[C@@H](Cc2ccc(O)cc2)C(=O)N[C@@H](CS)C(N)=O)NC(=O)[C@H](Cc2c[nH]c3ccccc23)NC(=O)[C@H](CC(C)C)NC(=O)[C@H](Cc2ccccc2)NC1=O)[C@@H](C)O | 11.8% |  |  | 
6 | CC[C@H](C)[C@H](NC(=O)[C@H](CCC(=O)O)NC(=O)[C@H](CO)NC(C)=O)C(=O)N[C@H](C(=O)N[C@@H](CCCCN)C(=O)N[C@@H](CCC(N)=O)C(=O)N[C@@H](CCC(=O)O)C(=O)N[C@@H](CCCCN)C(=O)N[C@]1(C)CSCCNC(=O)Cc2ccc(cc2)CC(=O)NCCSC[C@@](C)(C(=O)N[C@@H](Cc2c[nH]cn2)C(=O)N[C@@H](CCCNC(=N)N)C(=O)N[C@@H](Cc2c[nH]cn2)C(=O)N[C@@H](Cc2ccc(O)cc2)C(=O)N[C@@H](CS)C(N)=O)NC(=O)[C@H](Cc2c[nH]c3ccccc23)NC(=O)[C@H](CC(C)C)NC(=O)[C@H](Cc2ccccc2)NC1=O)[C@@H](C)O | 11.1% |  |  | 
7 | CC[C@H](C)[C@H](NC(=O)[C@H](CCC(=O)O)NC(=O)[C@H](CO)NC(C)=O)C(=O)N[C@H](C(=O)N[C@@H](CCCCN)C(=O)N[C@@H](CCC(N)=O)C(=O)N[C@@H](CCC(=O)O)C(=O)N[C@@H](CCCCN)C(=O)N[C@@]1(C)CSCCNC(=O)Cc2ccc(cc2)CC(=O)NCCSC[C@@](C)(C(=O)N[C@@H](Cc2c[nH]cn2)C(=O)N[C@@H](CCCNC(=N)N)C(=O)N[C@@H](Cc2c[nH]cn2)C(=O)N[C@@H](Cc2ccc(O)cc2)C(=O)N[C@@H](CS)C(N)=O)NC(=O)[C@H](Cc2c[nH]c3ccccc23)NC(=O)[C@H](CC(C)C)NC(=O)[C@H](Cc2ccccc2)NC1=O)[C@@H](C)O [compound 5] | 10.4% | ~19.2% | ~5.6% | 
